Tests used:
ragweed = test: Test A pre-/postemergence herbicide test; format: in vivo, Ambrosia elatior
Method in brief: (§1)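 Formulated compound (non-phytotoxic solvent, surfactant) sprayed pre- onto soil of seeded loam/sand pots or post- onto seedlings at 1–2 leaves; ~10 d greenhouse; 0–100 visual control rating versus untreated.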

kochia = test: Test A pre-/postemergence herbicide test; format: in vivo, Kochia scoparia
Method in brief: as §1

galium = test: Test A postemergence herbicide test; format: in vivo, Galium aparine
Method in brief: (§2)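 Young potted plants in a loam–sand mix, one- to two-leaf stage and 2–10 cm tall, receive the test chemical postemergence and stay in a greenhouse for approximately 10 days. Injury is then judged by eye against untreated plants, scored 0 (none) to 100 (complete control).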

blackgrass = test: Test A postemergence herbicide test; format: in vivo, Alopecurus myosuroides
Method in brief: as §2

[1] = Postemergence, 125 g ai/ha, visual rating on 0 to 100 scale (0 no effect, 100 complete control), approx. 10 days
[2] = Postemergence, 500 g ai/ha, 0 to 100 scale (0 no effect, 100 complete control)
[3] = Preemergence, 125 g ai/ha, 0 to 100 scale where 0 is no effect and 100 is complete control
[4] = preemergence, 500 g ai/ha, 0 to 100 scale, 0 is no effect and 100 is complete control
[5] = Postemergence, 125 g ai/ha, 0 to 100 scale, 0 is no effect, 100 is complete control
[6] = 125 g ai/ha, 0 to 100 scale, 0 is no effect, 100 is complete control
[7] = 500 g ai/ha, 0 to 100 scale (0 no effect, 100 complete control)
[8] = 125 g ai/ha, visual rating, 0 to 100 scale, 0 no effect, 100 complete control, approximately 10 days, preemergence
[9] = Preemergence, 500 g ai/ha, visual rating on 0 to 100 scale (0 no effect, 100 complete control)
[10] = 125 g ai/ha, visual rating on 0 to 100 scale (0 no effect, 100 complete control), approx. 10 days
[11] = Postemergence, 1000 g ai/ha, 0 to 100 scale (0 no effect, 100 complete control)
[12] = preemergence, 1000 g ai/ha, 0 to 100 scale
[13] = 1000 g ai/ha, 0 to 100 scale (0 no effect, 100 complete control)

SMILES | Plant response rating, Ragweed (ragweed; [1]) | Plant response rating, Ragweed (ragweed; [2]) | Plant response rating, Ragweed (ragweed; [3]) | Plant response rating, Ragweed (ragweed; [4]) | Plant response rating, Kochia (kochia; [5]) | Plant response rating, Kochia (kochia; [2]) | Plant response rating, Kochia (kochia; [3]) | Plant response rating, Kochia (kochia; [4]) | Plant response rating, Galium (galium; [6]) | Plant response rating, Galium (galium; [7]) | Plant response rating, Blackgrass (blackgrass; [6]) | Plant response rating, Blackgrass (blackgrass; [7]) | Ragweed plant response rating (ragweed; [9]) | Plant response rating, Kochia (kochia; [1]) | Kochia plant response rating (kochia; [9]) | Plant response rating, Galium (galium; [10]) | Plant response rating, Blackgrass (blackgrass; [10]) | other results
O=C1NCC(c2cc(F)cc(F)c2)C1C(=O)Nc1cccc(F)c1F (racemic) [Compound 279] | 0 | 0 | 0 | 0 | 0 | 40 | 40 | 80 | 40 | 50 | 60 | 70 |  |  |  |  |  | 
O=C1NCC(c2ccc(C(F)(F)F)cc2)C1C(=O)Nc1ccccc1Cl (stereo not shown) [Compound 233] |  |  |  | 50 | 60 |  |  | 80 | 20 |  | 60 |  |  |  |  |  |  | Plant response rating, Ragweed (ragweed; [8]): 40; Plant response rating, Ragweed (ragweed; [5]): 30; Ragweed plant response rating (0 to 100 scale, 0 is no effect, 100 is complete control) (ragweed; Postemergence, 500 g ai/ha): 50; Plant response rating, Kochia (kochia; [8]): 50; Kochia plant response rating (0 to 100 scale, 0 is no effect, 100 is complete control) (kochia; Postemergence, 500 g ai/ha): 80; Galium plant response rating (0 to 100 scale, 0 is no effect, 100 is complete control) (galium; 500 g ai/ha): 50; Blackgrass plant response rating (0 to 100 scale, 0 is no effect, 100 is complete control) (blackgrass; 500 g ai/ha): 60
O=C1NCC(c2cccc(C(F)(F)F)c2)C1C(=O)Nc1cccc(Cl)c1F (stereo not shown) [Compound 316] | 20 | 30 | 20 |  |  | 40 | 0 |  |  | 40 |  | 40 | 30 | 30 | 30 | 20 | 30 | 
O=C(Nc1ccccc1F)C1C(=S)NCC1c1cccc(C(F)(F)F)c1 (stereo not shown) [Compound 274] | 0 |  |  |  |  |  |  |  |  |  |  |  |  |  |  |  |  | Plant response rating, Ragweed (ragweed; [11]): 30; Plant response rating, Ragweed (ragweed; [12]): 20; Plant response rating, Kochia (kochia; [11]): 40; Plant response rating, Kochia (kochia; [12]): 40; Plant response rating, Galium (galium; [13]): 0; Plant response rating, Blackgrass (blackgrass; [13]): 50
CN1CC(c2ccc(F)c(F)c2)C(C(=O)Nc2ccccc2F)C1=O (stereo not shown) [Compound 302] | 0 | 0 | 0 |  |  | 60 | 50 |  |  | 60 |  | 60 | 30 | 10 | 70 | 60 | 40 | 
O=C1NCC(c2cccc(C(F)(F)F)c2)C1C(=O)Nc1ccc(F)c(F)c1F (stereo not shown) [Compound 315] | 20 | 40 | 20 |  |  | 70 | 40 |  |  | 50 |  | 50 | 30 | 50 | 60 | 40 | 40 | 

From US10294202B2, “Pyrrolidinones as herbicides” (FMC Corporation, priority 2013, dated 2019)
